# Results: article PMC11675580, “Supersaturated Gel Formulation (SGF) of Atorvastatin at a Maximum Dose of 80 mg with Enhanced Solubility, Dissolution, and Physical Stability” (Gels, 2024)
# Assay: Drug release kinetics (first-order fit)
# Format: physicochemical
# Excerpt: The drug release data was fitted to kinetic models of first-order, and the coefficient of determination (r^2) was indicative of best-fit model to describe drug release kinetics.
smiles,measurement,setting,value
"CC(C)c1c(C(=O)Nc2ccccc2)c(-c2ccccc2)c(-c2ccc(F)cc2)n1CC[C@@H](O)C[C@@H](O)CC(=O)O [ATR, Atorvastatin calcium trihydrate]","Drug release rate constant (first-order rate constant, K1)","Water, release data until 30 min",1.092
same,"Drug release rate constant (first-order rate constant, K1)","pH 1.2, release data until 30 min",0.608
same,"Drug release rate constant (first-order rate constant, K1)","pH 4.0, release data until 30 min",0.752
same,"Drug release rate constant (first-order rate constant, K1)","pH 6.8, release data until 30 min",1.040
